Measured values taken from ChEMBL document CHEMBL5528065, “Structure-Activity Relationship of a Pyrrole Based Series of PfPKG Inhibitors as Anti-Malarials” (J Med Chem, 2024).

tested on: not listed separately; assay: Intrinsic clearance in human liver microsomes in presence of NADPH incubated for 60 mins by LC-MS/MS analysis; assay type: ADME, Microsome; conditions: read-out: CLH

**Q.** Which microsomal CLint does the source give for `C[C@H]1CN(C)CC[C@@H]1c1cc(-c2ccncc2)c(-c2ccc(F)cc2)[nH]1.Cl.Cl` here?
**A.** < 23 µL/min/mg

**Q.** With `C[C@@H]1CN(C)CCC1c1cc(-c2ccncc2)c(-c2ccc(F)cc2)[nH]1.Cl.Cl` (single isomer, unassigned) as the compound, how does the microsomal CLint read?
**A.** < 23 µL/min/mg

tested on: not listed separately; assay: Apparent permeability in human Caco-2 cells incubated for 120 mins by LC-MS/MS analysis; assay type: ADME, cell-based; conditions: not given

**Q.** With `C[C@H]1CN(C)CC[C@@H]1c1cc(-c2ccncc2)c(-c2ccc(F)cc2)[nH]1.Cl.Cl` as the compound, how does the Papp at 2 h read?
**A.** 22.6 ×10⁻⁶ cm/s

**Q.** Which Papp at 2 h does the source give for `C[C@@H]1CN(C)CCC1c1cc(-c2ccncc2)c(-c2ccc(F)cc2)[nH]1.Cl.Cl` (single isomer, unassigned) here?
**A.** 22.1 ×10⁻⁶ cm/s

tested on: not listed separately; assay: Protein binding in CD-1 mouse liver microsomes assessed as unbound fraction incubated for 17 hrs by LC-MS analysis; assay type: ADME, Microsome; conditions: not given

**Q.** With `C[C@H]1CN(C)CC[C@@H]1c1cc(-c2ccncc2)c(-c2ccc(F)cc2)[nH]1.Cl.Cl` as the compound, how does the fraction unbound at 17 h read?
**A.** 0.63

**Q.** With `C[C@@H]1CN(C)CCC1c1cc(-c2ccncc2)c(-c2ccc(F)cc2)[nH]1.Cl.Cl` (single isomer, unassigned) as the compound, how does the fraction unbound at 17 h read?
**A.** 0.518

tested on: not listed separately; assay: Efflux ratio of apparent permeability from basolateral to apical side over apical to basolateral side in human Caco-2 cells incubated for 120 mins by LC-MS/MS analysis; assay type: ADME, cell-based; conditions: not given

**Q.** With `C[C@H]1CN(C)CC[C@@H]1c1cc(-c2ccncc2)c(-c2ccc(F)cc2)[nH]1.Cl.Cl` as the compound, how does the efflux ratio at 2 h read?
**A.** 1.52

**Q.** Which efflux ratio at 2 h does the source give for `C[C@@H]1CN(C)CCC1c1cc(-c2ccncc2)c(-c2ccc(F)cc2)[nH]1.Cl.Cl` (single isomer, unassigned) here?
**A.** 1.59

tested on: not listed separately; assay: Protein binding in C57BL/6 mouse plasma assessed as unbound fraction incubated for 22 hrs by LC-MS/MS analysis; assay type: ADME, cell-free; conditions: not given

**Q.** With `C[C@H]1CN(C)CC[C@@H]1c1cc(-c2ccncc2)c(-c2ccc(F)cc2)[nH]1.Cl.Cl` as the compound, how does the fraction unbound at 22 h read?
**A.** 0.122

**Q.** Which fraction unbound at 22 h does the source give for `C[C@@H]1CN(C)CCC1c1cc(-c2ccncc2)c(-c2ccc(F)cc2)[nH]1.Cl.Cl` (single isomer, unassigned) here?
**A.** 0.119

tested on: Plasmodium falciparum; assay: Antimalarial activity against drug-sensitive Plasmodium falciparum 3D7 infected in human erythrocytes assessed as reduction in parasitemia incubated for 72 hrs by SYBR green I and Mitotracker deep red dye based flow cytometric analysis; assay type: functional, organism-based; conditions: not given

**Q.** For `C[C@@H]1CN(C)CCC1c1cc(-c2ccncc2)c(-c2ccc(F)cc2)[nH]1.Cl.Cl` (single isomer, unassigned), which EC50 is on record?
**A.** 50 nM

same assay, conditions: Plasmodium falciparum, 3D7, 72 h

**Q.** With `C[C@H]1CN(C)CC[C@@H]1c1cc(-c2ccncc2)c(-c2ccc(F)cc2)[nH]1.Cl.Cl` as the compound, how does the EC50 read?
**A.** 80 nM

tested on: not listed separately; assay: Aqueous solubility of compound in PBS at pH 7.4 incubated for 90 mins by UV spectrophotometric analysis; assay type: physicochemical; conditions: not given

**Q.** For `C[C@H]1CN(C)CC[C@@H]1c1cc(-c2ccncc2)c(-c2ccc(F)cc2)[nH]1.Cl.Cl`, which solubility at 1.5 h is on record?
**A.** 187 µM

**Q.** For `C[C@@H]1CN(C)CCC1c1cc(-c2ccncc2)c(-c2ccc(F)cc2)[nH]1.Cl.Cl` (single isomer, unassigned), which solubility at 1.5 h is on record?
**A.** 176 µM

target: Cytochrome P450 2D6 (Homo sapiens, UniProt P10635); assay: Inhibition of human CYP2D6 expressed in baculovirus infected insect cells using AMMC as substrate incubated for 40 mins in presence of NADPH by UPLC-MS analysis; assay type: ADME; conditions: not given
Sequence (P10635 whole entry): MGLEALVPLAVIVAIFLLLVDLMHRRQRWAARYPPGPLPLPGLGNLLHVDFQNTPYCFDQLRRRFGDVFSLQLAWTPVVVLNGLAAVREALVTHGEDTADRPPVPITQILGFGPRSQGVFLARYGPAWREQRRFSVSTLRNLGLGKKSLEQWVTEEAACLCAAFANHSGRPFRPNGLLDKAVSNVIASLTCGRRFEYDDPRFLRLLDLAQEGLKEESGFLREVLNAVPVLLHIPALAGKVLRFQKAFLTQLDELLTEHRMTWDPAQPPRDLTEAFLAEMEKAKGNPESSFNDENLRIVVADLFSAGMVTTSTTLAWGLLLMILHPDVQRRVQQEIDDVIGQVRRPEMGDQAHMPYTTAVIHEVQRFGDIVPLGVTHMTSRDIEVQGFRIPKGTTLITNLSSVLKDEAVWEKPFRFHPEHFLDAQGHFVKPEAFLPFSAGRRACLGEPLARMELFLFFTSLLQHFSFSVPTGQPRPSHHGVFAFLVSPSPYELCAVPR

**Q.** Which IC50 does the source give for `C[C@H]1CN(C)CC[C@@H]1c1cc(-c2ccncc2)c(-c2ccc(F)cc2)[nH]1.Cl.Cl` here?
**A.** 6150 nM

**Q.** With `C[C@@H]1CN(C)CCC1c1cc(-c2ccncc2)c(-c2ccc(F)cc2)[nH]1.Cl.Cl` (single isomer, unassigned) as the compound, how does the IC50 read?
**A.** 5740 nM

tested on: not listed separately; assay: Stability in human liver microsomes assessed as remaining compound in absence of NADPH incubated for 60 mins by LC-MS/MS analysis; assay type: ADME, Microsome; conditions: read-out: Stability

**Q.** With `C[C@H]1CN(C)CC[C@@H]1c1cc(-c2ccncc2)c(-c2ccc(F)cc2)[nH]1.Cl.Cl` as the compound, how does the remaining at 1 h read?
**A.** 100%

**Q.** With `C[C@@H]1CN(C)CCC1c1cc(-c2ccncc2)c(-c2ccc(F)cc2)[nH]1.Cl.Cl` (single isomer, unassigned) as the compound, how does the remaining at 1 h read?
**A.** 98%

tested on: Plasmodium berghei; assay: Antimalarial activity against Plasmodium berghei sporozoites expressing Luciferase infected in human HepG2 cells assessed as reduction in parasite growth incubated for 48 hrs by ONE-Glo luciferase assay; assay type: functional, organism-based; conditions: not given

**Q.** For `C[C@@H]1CN(C)CCC1c1cc(-c2ccncc2)c(-c2ccc(F)cc2)[nH]1.Cl.Cl` (single isomer, unassigned), which EC50 is on record?
**A.** 60 nM

same assay, conditions: Plasmodium berghei, HepG2, 48 h

**Q.** For `C[C@H]1CN(C)CC[C@@H]1c1cc(-c2ccncc2)c(-c2ccc(F)cc2)[nH]1.Cl.Cl`, which EC50 is on record?
**A.** 170 nM

tested on: not listed separately; assay: Stability in CD-1 mouse liver microsomes assessed as remaining compound in absence of NADPH incubated for 60 mins by LC-MS/MS analysis; assay type: ADME, Microsome; conditions: read-out: Stability

**Q.** Which remaining at 1 h does the source give for `C[C@H]1CN(C)CC[C@@H]1c1cc(-c2ccncc2)c(-c2ccc(F)cc2)[nH]1.Cl.Cl` here?
**A.** 99%

**Q.** Which remaining at 1 h does the source give for `C[C@@H]1CN(C)CCC1c1cc(-c2ccncc2)c(-c2ccc(F)cc2)[nH]1.Cl.Cl` (single isomer, unassigned) here?
**A.** 103%

target: Cytochrome P450 3A4 (Homo sapiens, UniProt P08684); assay: Inhibition of human CYP3A4 expressed in baculovirus infected insect cells using midazolam as substrate incubated for 30 mins in presence of NADPH by UPLC-MS analysis; assay type: ADME; conditions: not given
Sequence (P08684 whole entry): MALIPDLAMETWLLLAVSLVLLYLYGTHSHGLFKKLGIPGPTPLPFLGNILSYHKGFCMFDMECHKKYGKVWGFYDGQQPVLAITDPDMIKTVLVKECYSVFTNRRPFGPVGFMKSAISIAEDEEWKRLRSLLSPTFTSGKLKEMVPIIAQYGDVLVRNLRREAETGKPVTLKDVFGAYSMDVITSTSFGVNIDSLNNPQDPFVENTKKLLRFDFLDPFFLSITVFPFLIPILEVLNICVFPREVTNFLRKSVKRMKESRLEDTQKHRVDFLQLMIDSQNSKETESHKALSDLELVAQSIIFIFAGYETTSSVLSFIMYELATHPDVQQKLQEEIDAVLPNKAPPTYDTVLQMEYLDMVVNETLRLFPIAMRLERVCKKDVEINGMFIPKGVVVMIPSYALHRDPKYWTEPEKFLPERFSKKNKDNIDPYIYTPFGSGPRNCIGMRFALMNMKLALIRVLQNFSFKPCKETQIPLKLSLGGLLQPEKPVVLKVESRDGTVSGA

**Q.** Which IC50 does the source give for `C[C@H]1CN(C)CC[C@@H]1c1cc(-c2ccncc2)c(-c2ccc(F)cc2)[nH]1.Cl.Cl` here?
**A.** 4780 nM

**Q.** With `C[C@@H]1CN(C)CCC1c1cc(-c2ccncc2)c(-c2ccc(F)cc2)[nH]1.Cl.Cl` (single isomer, unassigned) as the compound, how does the IC50 read?
**A.** 7480 nM

tested on: not listed separately; assay: Intrinsic clearance in CD-1 mouse liver microsomes in presence of NADPH incubated for 60 mins by LC-MS/MS analysis; assay type: ADME, Microsome; conditions: read-out: CLH

**Q.** For `C[C@H]1CN(C)CC[C@@H]1c1cc(-c2ccncc2)c(-c2ccc(F)cc2)[nH]1.Cl.Cl`, which microsomal CLint is on record?
**A.** < 23 µL/min/mg

**Q.** For `C[C@@H]1CN(C)CCC1c1cc(-c2ccncc2)c(-c2ccc(F)cc2)[nH]1.Cl.Cl` (single isomer, unassigned), which microsomal CLint is on record?
**A.** 44.5 µL/min/mg

target: Voltage-gated inwardly rectifying potassium channel KCNH2 (Homo sapiens, UniProt Q12809); assay: Inhibition of hERG expressed in HEK293 cells incubated for 30 mins by FluxOR dye based fluorescence analysis; assay type: toxicity, cell-based; conditions: not given
Sequence (Q12809 whole entry): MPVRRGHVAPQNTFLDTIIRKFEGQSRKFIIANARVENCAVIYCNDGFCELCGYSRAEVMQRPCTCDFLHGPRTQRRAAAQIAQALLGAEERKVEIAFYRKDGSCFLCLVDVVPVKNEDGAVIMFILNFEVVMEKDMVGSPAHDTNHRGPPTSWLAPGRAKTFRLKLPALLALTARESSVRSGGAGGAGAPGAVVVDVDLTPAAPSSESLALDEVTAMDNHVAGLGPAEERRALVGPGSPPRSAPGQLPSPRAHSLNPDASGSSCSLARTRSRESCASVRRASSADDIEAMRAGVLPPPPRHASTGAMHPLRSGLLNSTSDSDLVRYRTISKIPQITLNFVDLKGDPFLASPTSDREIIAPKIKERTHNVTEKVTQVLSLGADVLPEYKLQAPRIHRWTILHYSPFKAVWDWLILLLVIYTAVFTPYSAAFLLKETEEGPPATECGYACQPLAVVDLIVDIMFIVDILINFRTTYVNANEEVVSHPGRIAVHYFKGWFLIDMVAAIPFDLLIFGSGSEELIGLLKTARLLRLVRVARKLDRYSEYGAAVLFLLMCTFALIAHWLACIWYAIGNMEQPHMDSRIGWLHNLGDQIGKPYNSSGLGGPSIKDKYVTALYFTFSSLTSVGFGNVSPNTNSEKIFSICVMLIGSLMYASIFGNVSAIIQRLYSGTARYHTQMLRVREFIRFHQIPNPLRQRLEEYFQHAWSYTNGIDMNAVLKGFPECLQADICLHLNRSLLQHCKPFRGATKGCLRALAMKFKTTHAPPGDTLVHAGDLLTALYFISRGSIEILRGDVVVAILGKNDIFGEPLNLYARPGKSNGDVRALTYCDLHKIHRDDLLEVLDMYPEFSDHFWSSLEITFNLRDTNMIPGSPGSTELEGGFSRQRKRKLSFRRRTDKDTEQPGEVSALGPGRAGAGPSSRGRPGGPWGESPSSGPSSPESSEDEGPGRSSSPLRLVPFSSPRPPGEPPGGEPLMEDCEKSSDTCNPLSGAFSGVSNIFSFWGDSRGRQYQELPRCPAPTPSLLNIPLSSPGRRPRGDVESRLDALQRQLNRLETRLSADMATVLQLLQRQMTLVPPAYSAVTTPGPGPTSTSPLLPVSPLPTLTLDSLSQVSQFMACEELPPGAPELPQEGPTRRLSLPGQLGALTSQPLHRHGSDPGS

**Q.** Which IC50 does the source give for `C[C@H]1CN(C)CC[C@@H]1c1cc(-c2ccncc2)c(-c2ccc(F)cc2)[nH]1.Cl.Cl` here?
**A.** > 10000 nM

**Q.** With `C[C@@H]1CN(C)CCC1c1cc(-c2ccncc2)c(-c2ccc(F)cc2)[nH]1.Cl.Cl` (single isomer, unassigned) as the compound, how does the IC50 read?
**A.** > 10000 nM

tested on: Plasmodium falciparum; assay: Antimalarial activity against Plasmodium falciparum expressing PKG T618Q mutant infected in human erythrocytes assessed as reduction in parasitemia incubated for 72 hrs by SYBR green I and Mitotracker deep red dye based flow cytometric analysis; assay type: functional, organism-based; conditions: not given

**Q.** Which EC50 does the source give for `C[C@@H]1CN(C)CCC1c1cc(-c2ccncc2)c(-c2ccc(F)cc2)[nH]1.Cl.Cl` (single isomer, unassigned) here?
**A.** 1220 nM

same assay, conditions: Plasmodium falciparum, 72 h

**Q.** Which EC50 does the source give for `C[C@H]1CN(C)CC[C@@H]1c1cc(-c2ccncc2)c(-c2ccc(F)cc2)[nH]1.Cl.Cl` here?
**A.** 780 nM

tested on: not listed separately; assay: Half life in human liver microsomes in presence of NADPH incubated for 60 mins by LC-MS/MS analysis; assay type: ADME, Microsome; conditions: not given

**Q.** For `C[C@H]1CN(C)CC[C@@H]1c1cc(-c2ccncc2)c(-c2ccc(F)cc2)[nH]1.Cl.Cl`, which half-life is on record?
**A.** > 1 h

**Q.** Which half-life does the source give for `C[C@@H]1CN(C)CCC1c1cc(-c2ccncc2)c(-c2ccc(F)cc2)[nH]1.Cl.Cl` (single isomer, unassigned) here?
**A.** > 1 h

tested on: not listed separately; assay: Half life in CD-1 mouse liver microsomes in presence of NADPH incubated for 60 mins by LC-MS/MS analysis; assay type: ADME, Microsome; conditions: not given

**Q.** Which half-life does the source give for `C[C@H]1CN(C)CC[C@@H]1c1cc(-c2ccncc2)c(-c2ccc(F)cc2)[nH]1.Cl.Cl` here?
**A.** > 1 h

**Q.** With `C[C@@H]1CN(C)CCC1c1cc(-c2ccncc2)c(-c2ccc(F)cc2)[nH]1.Cl.Cl` (single isomer, unassigned) as the compound, how does the half-life read?
**A.** 0.52 h

target: Cytochrome P450 2C9 (Homo sapiens, UniProt P11712); assay: Inhibition of human CYP2C9 expressed in baculovirus infected insect cells using MFC as substrate incubated for 30 mins in presence of NADPH by UPLC-MS analysis; assay type: ADME; conditions: not given
Sequence (P11712 whole entry): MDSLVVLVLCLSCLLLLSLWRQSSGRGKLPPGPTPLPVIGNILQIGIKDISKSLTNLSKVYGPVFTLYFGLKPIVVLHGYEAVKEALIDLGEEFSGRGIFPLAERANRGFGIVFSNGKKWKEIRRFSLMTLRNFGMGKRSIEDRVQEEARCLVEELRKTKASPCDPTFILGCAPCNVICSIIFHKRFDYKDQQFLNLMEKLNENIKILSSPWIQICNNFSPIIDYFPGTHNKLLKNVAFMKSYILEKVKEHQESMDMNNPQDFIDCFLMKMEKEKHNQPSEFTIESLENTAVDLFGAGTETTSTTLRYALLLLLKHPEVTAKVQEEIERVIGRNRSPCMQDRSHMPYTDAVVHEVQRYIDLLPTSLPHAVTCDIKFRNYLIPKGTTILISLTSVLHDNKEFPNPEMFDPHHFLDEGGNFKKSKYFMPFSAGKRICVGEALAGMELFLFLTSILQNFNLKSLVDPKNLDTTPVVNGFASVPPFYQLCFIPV

**Q.** Which IC50 does the source give for `C[C@H]1CN(C)CC[C@@H]1c1cc(-c2ccncc2)c(-c2ccc(F)cc2)[nH]1.Cl.Cl` here?
**A.** > 10000 nM

**Q.** With `C[C@@H]1CN(C)CCC1c1cc(-c2ccncc2)c(-c2ccc(F)cc2)[nH]1.Cl.Cl` (single isomer, unassigned) as the compound, how does the IC50 read?
**A.** > 10000 nM

tested on: not listed separately; assay: Inhibition of recombinant Plasmodium falciparum PKG using FAM-PKA peptide as fluorescent substrate preincubated for 15 mins followed by substrate addition measured after 1 hr by fluorescence polarization based IMAP assay; conditions: not given

**Q.** Which results are given for `C[C@H]1CN(C)CC[C@@H]1c1cc(-c2ccncc2)c(-c2ccc(F)cc2)[nH]1.Cl.Cl`?
**A.** IC50: 14 nM; pIC50: 7.87

**Q.** What does the source list for `C[C@@H]1CN(C)CCC1c1cc(-c2ccncc2)c(-c2ccc(F)cc2)[nH]1.Cl.Cl` (single isomer, unassigned)?
**A.** IC50: 9 nM; pIC50: 8.05

species on record: Homo sapiens; assay: Inhibition of human PKG using FAM-IP3R peptide as fluorescent substrate at 10 uM preincubated for 15 mins followed by substrate addition measured after 1 hr by fluorescence polarization based IMAP assay relative to control; conditions: time 75.0 min

**Q.** For `C[C@H]1CN(C)CC[C@@H]1c1cc(-c2ccncc2)c(-c2ccc(F)cc2)[nH]1.Cl.Cl`, which inhibition is on record?
**A.** 30%

**Q.** With `C[C@@H]1CN(C)CCC1c1cc(-c2ccncc2)c(-c2ccc(F)cc2)[nH]1.Cl.Cl` (single isomer, unassigned) as the compound, how does the inhibition read?
**A.** 45%
